# Results published in patent US6861235B1, “Method for controlling target microorganism” (priority 1998, dated 2005).
# Entries after “also recorded” stand apart in the source; their conditions may differ. Read-outs that look alike come from different tables or passages of the source. Peptide text beside a SMILES is read from it.
# What was measured:
# [1] = system: NKR strain; format: cell-based, Burkholderia sp. N16-1 strain; details: for cell count of the NKR strain in the soil vs no addition: pH-adjusted SB soil
# [2] = system: NKR strain; format: cell-based, Burkholderia sp. N16-1 strain
# [3] = system: total cell count in the soil; format: cell-based
# [4] = system: Ralstonia solanacearum OE1-1 strain; format: cell-based; details: for cell count of the OE1-1 strain vs 0 ppm: Example 9; for control of R. solanacearum OE1-1 strain: Examples 9 and 10 summary, addition of 500 ppm or more
# [5] = system: R. solanacearum OE1-1 strain; format: in vivo, tomato; details: 500 ppm D-serine-added contaminated soil
# [6] = system: total cell count in the soil; experiment: Total cell count in soil inoculated with the NKR strain (DNB agar medium); format: cell-based; details: Example 3; SB soil pH 7.0; sucrose solution with M9 medium (N, P and C source) added on day 13
# [7] = Example 5, 5000 ppm added after 5 days at 20° C.
# [8] = Biolog GN plate, compounds in parentheses showed slight color development
# [9] = Example 7, SB soil, 5000 ppm substrate, D-serine metabolites
compound,measurement,setting,value
NC(CO)C(=O)O (racemic) [DL-serine],cell count of the NKR strain in the soil vs no addition,[1]; [7],the effect of cell count control can be observed though the degree of reduction is small
"CC(O)C(C)O (stereo not shown) [2,3-butanediol]",assimilation by the NKR strain (color development of an oxidation-reduction indicator),[2]; [8],no color development
"O=P(O)(O)OCC(O)CO [D, L-α-glycerol phosphate]",assimilation by the NKR strain (color development of an oxidation-reduction indicator),[2]; [8],no color development
N[C@H](CS)C(=O)O [D-cysteine],cell count of the NKR strain vs control section,[1]; [9],markedly declined; also recorded: exhibited control effects
O=C(CO)[C@H](O)[C@H](O)[C@H](O)CO [D-piscose],assimilation by the NKR strain (color development of an oxidation-reduction indicator),[2]; [8],slight color development
OC[C@H]1O[C@H](OC[C@H]2O[C@H](O[C@]3(CO)O[C@H](CO)[C@@H](O)[C@@H]3O)[C@H](O)[C@@H](O)[C@@H]2O)[C@H](O)[C@@H](O)[C@H]1O [D-raffinose],assimilation by the NKR strain (color development of an oxidation-reduction indicator),[2]; [8],no color development
O=C(O)[C@@H](O)[C@@H](O)[C@H](O)[C@@H](O)C(=O)O [D-saccharic acid],assimilation by the NKR strain (color development of an oxidation-reduction indicator),[2]; [8],slight color development
"NC(CO)C(=O)O [D-serine, 2-amino-3-hydroxypropionic acid]",total cell count in the soil,[3],almost no changes were observed
same,assimilation by the NKR strain (color development of an oxidation-reduction indicator),[2]; [8],does not assimilate; also recorded: no color development
same,cell count of the OE1-1 strain vs control,"[4]; Example 8, field soil, 5000 ppm",declined markedly
same,cell count of the OE1-1 strain vs 0 ppm,"[4]; field soil, D-serine 500, 1000, 2000 or 5000 ppm",a reduction in the cell count
same,control of R. solanacearum OE1-1 strain,[4],works to control
same,germination of tomato seeds,[5]; day 4 after sowing,germination of the tomato seeds was observed
same,growth of young tomato seedlings,[5]; no-addition seedlings all died except one by day 10,grew normally
same,cell count of the NKR strain in the soil vs no addition,"[1]; Example 4, 0.5% D-serine added after 2 days culture at 30° C.",markedly reduced; also recorded: markedly declined; also recorded: very effective
same,cell count of the NKR strain in the soil vs no addition,[1]; [7],markedly declined; also recorded: very effective
same,cell count of the NKR strain vs control section,"[1]; Example 6, 5000 ppm, Kuroboku (black) soil A (field soil)",no effects were observed
same,cell count of the NKR strain vs control section,"[1]; Example 6, 5000 ppm, Kuroboku (black) soil B, sandy soils A, B, C, D (all soils excluding Kuroboku soil A)",markedly declined
OC[C@H]1O[C@H](O[C@H]2O[C@H](CO)[C@@H](O)[C@H](O)[C@H]2O)[C@H](O)[C@@H](O)[C@@H]1O [D-trehalose],assimilation by the NKR strain (color development of an oxidation-reduction indicator),[2]; [8],slight color development
C[C@@H](N)C(=O)O [D-α-alanine],assimilation by the NKR strain (color development of an oxidation-reduction indicator),[2]; [8],no color development
same,cell count of the NKR strain vs control section,[1]; [9],markedly declined; also recorded: exhibited control effects
N[C@@H](CC(=O)O)C(=O)O [L-aspartic acid],assimilation by the NKR strain (color development of an oxidation-reduction indicator),[2]; [8],slight color development
NCCC[C@H](N)C(=O)O [L-omithine],assimilation by the NKR strain (color development of an oxidation-reduction indicator),[2]; [8],slight color development
N[C@@H](CO)C(=O)O [L-serine],assimilation by the NKR strain (color development of an oxidation-reduction indicator),[2]; [8],slight color development
same,cell count of the NKR strain in the soil vs no addition,[1]; [7],remained almost constant; also recorded: almost no effect
C[C@@H](O)[C@H](N)C(=O)O [L-threonine],assimilation by the NKR strain (color development of an oxidation-reduction indicator),[2]; [8],slight color development
CC(=O)O [acetic acid],assimilation by the NKR strain (color development of an oxidation-reduction indicator),[2]; [8],no color development
C[C@H](N)C(N)=O [alanine amide],assimilation by the NKR strain (color development of an oxidation-reduction indicator),[2]; [8],slight color development
O=C[C@H](O)[C@@H](O)[C@H](O[C@@H]1O[C@H](CO)[C@@H](O)[C@H](O)[C@H]1O)[C@H](O)CO [cellobiose],assimilation by the NKR strain (color development of an oxidation-reduction indicator),[2]; [8],slight color development
OC[C@@H](O)[C@@H](O)CO [erythritol],assimilation by the NKR strain (color development of an oxidation-reduction indicator),[2]; [8],no color development
NCCO [ethanolamine],total cell count in the soil,[3],remained constant
same,assimilation by the NKR strain (color development of an oxidation-reduction indicator),[2]; [8],slight color development
same,cell count of the OE1-1 strain vs 0 ppm,[4]; ethanolamine 500 ppm sequentially added or 1000 ppm or greater,decrease in the cell counts
same,cell count of the OE1-1 strain vs 0 ppm,[4]; one-time addition of 500 ppm ethanolamine,did not exhibit sufficient effects
same,control of R. solanacearum OE1-1 strain,[4],works to control
same,cell count of the NKR strain vs control section,[1]; [9],markedly declined; also recorded: exhibited control effects
O=P(O)(O)O[C@H]1O[C@H](CO)[C@@H](O)[C@H](O)[C@H]1O [glucose-1-phosphate],assimilation by the NKR strain (color development of an oxidation-reduction indicator),[2]; [8],no color development
O=C[C@H](O)[C@@H](O)[C@H](O)[C@H](O)COP(=O)(O)O [glucose-6-phosphate],assimilation by the NKR strain (color development of an oxidation-reduction indicator),[2]; [8],slight color development
NC(=O)[C@@H](O)[C@@H](O)[C@H](O)[C@@H](O)C=O [glucuronamide],assimilation by the NKR strain (color development of an oxidation-reduction indicator),[2]; [8],slight color development
NCC(=O)N[C@@H](CC(=O)O)C(=O)O [glycyl-L-aspartic acid] (H-Gly-Asp-OH),assimilation by the NKR strain (color development of an oxidation-reduction indicator),[2]; [8],no color development
C=C(CC(=O)O)C(=O)O [itaconic acid],assimilation by the NKR strain (color development of an oxidation-reduction indicator),[2]; [8],no color development
O=C(O)CC(=O)O [malonic acid],assimilation by the NKR strain (color development of an oxidation-reduction indicator),[2]; [8],slight color development
OC[C@H]1O[C@H](O[C@H]2[C@H](O)[C@@H](O)[C@H](O)O[C@@H]2CO)[C@H](O)[C@@H](O)[C@@H]1O [maltose],assimilation by the NKR strain (color development of an oxidation-reduction indicator),[2]; [8],no color development
NCCc1ccccc1 [phenylethylamine],assimilation by the NKR strain (color development of an oxidation-reduction indicator),[2]; [8],no color development
CCC(=O)O [propionic acid],assimilation by the NKR strain (color development of an oxidation-reduction indicator),[2]; [8],no color development
NCCCCN [putrescine],assimilation by the NKR strain (color development of an oxidation-reduction indicator),[2]; [8],slight color development
CC(=O)C(=O)O [pyruvic acid],cell count of the NKR strain vs control section,[1]; [9],markedly declined; also recorded: exhibited control effects
COc1ccc2nccc(C(=O)O)c2c1 [quininic acid],assimilation by the NKR strain (color development of an oxidation-reduction indicator),[2]; [8],slight color development
O=C(O)CCCCCCCCC(=O)O [sebacic acid],assimilation by the NKR strain (color development of an oxidation-reduction indicator),[2]; [8],slight color development
OC[C@H]1O[C@@](CO)(O[C@H]2O[C@H](CO)[C@@H](O)[C@H](O)[C@H]2O)[C@@H](O)[C@@H]1O [sucrose],assimilation by the NKR strain (color development of an oxidation-reduction indicator),[2]; [8],does not assimilate; also recorded: no color development
same,total cell counts in the soil,[6],increases in the total cell counts were observed
same,cell count of the NKR strain in the soil,"[1]; Example 3, SB soil pH 7.0, sucrose solution with M9 medium added on day 13 after inoculation","transiently increased but then starts to decline; also recorded: after a transient increase, decreased slightly"
Cc1cn([C@H]2C[C@H](O)[C@@H](CO)O2)c(=O)[nH]c1=O [thymidine],assimilation by the NKR strain (color development of an oxidation-reduction indicator),[2]; [8],no color development
O=C(CO)[C@@H](O[C@H]1O[C@H](CO)[C@@H](O)[C@H](O)[C@H]1O)[C@H](O)[C@H](O)CO [turanose],assimilation by the NKR strain (color development of an oxidation-reduction indicator),[2]; [8],no color development
O=c1ccn([C@@H]2O[C@H](CO)[C@@H](O)[C@H]2O)c(=O)[nH]1 [uridine],assimilation by the NKR strain (color development of an oxidation-reduction indicator),[2]; [8],slight color development
O=C(O)/C=C/c1c[nH]cn1 [urocanic acid],assimilation by the NKR strain (color development of an oxidation-reduction indicator),[2]; [8],slight color development
OC[C@@H](O)[C@H](O)[C@@H](O)CO [xylitol],assimilation by the NKR strain (color development of an oxidation-reduction indicator),[2]; [8],no color development
OC[C@H]1O[C@@H](O[C@H]2[C@H](O)[C@@H](O)[C@@H](O)O[C@@H]2CO)[C@H](O)[C@@H](O)[C@H]1O [α-D-lactose],assimilation by the NKR strain (color development of an oxidation-reduction indicator),[2]; [8],slight color development
CCC(O)C(=O)O (stereo not drawn) [α-hydroxybutyric acid],assimilation by the NKR strain (color development of an oxidation-reduction indicator),[2]; [8],slight color development
CCC(=O)C(=O)O [α-ketobutyric acid],assimilation by the NKR strain (color development of an oxidation-reduction indicator),[2]; [8],slight color development
O=C(O)CCC(=O)C(=O)O [α-ketoglutaric acid],assimilation by the NKR strain (color development of an oxidation-reduction indicator),[2]; [8],slight color development
COC1OC(CO)C(O)C(O)C1O [β-methyl-D-glucose],assimilation by the NKR strain (color development of an oxidation-reduction indicator),[2]; [8],no color development
O=C(O)CCCO [γ-hydroxybutyric acid],assimilation by the NKR strain (color development of an oxidation-reduction indicator),[2]; [8],no color development
dextrin,assimilation by the NKR strain (color development of an oxidation-reduction indicator),[2]; [8],no color development
gentiobiose,assimilation by the NKR strain (color development of an oxidation-reduction indicator),[2],no color development
glycogen,assimilation by the NKR strain (color development of an oxidation-reduction indicator),[2]; [8],no color development
α-cyclodexrin,assimilation by the NKR strain (color development of an oxidation-reduction indicator),[2]; [8],no color development
